Laboratory results published in PMC3988166 (PLoS ONE, 2014).
Read-outs that look alike come from different tables or passages of the source.

Experiments:
[1] = test system: Caco-2 cell monolayers; test: Caco-2 cell permeability assay
Experimental: (§1) Human colorectal adenocarcinoma cells (Caco-2 cells) were obtained from the American Type Culture Collection, Rockville, USA. A Branson Sonifier 250 (Branson Ultrasonics, Danbury, USA) was used to lyse the cells for stability experiments. Protein content was measured using the BioRad protein assay kit (BioRad, Hercules, USA). TPP 96-well plates for stability assays were purchased from Sigma Aldrich (Castle Hill, Australia). For permeability studies Caco-2 cell monolayers were grown in 24 well plates with Transwell polycarbonate cell culture inserts (pore size 0.4 µm, diameter 6.5 mm) from Corning Incorporated (New York, USA). A Millicell-ERS epithelial Transep volt-ohmmeter system (EMD Millipore Corporation, Billerica, USA) was used to measure the transepithelial electrical resistance (TEER) values of the cells. Scintillation counting was carried out using Liquid Scintillation Systems from Beckman Coulter (Brea, USA).
(§2) A cell suspension of Caco-2 cells in the cell culture medium was adjusted to a cell density of 1×10^6 cells/mL before being aliquoted (100 µL) into Transwell polycarbonate cell culture inserts in a 24-well plate, while 600 µL of media was added to the basolateral chamber. The culture medium was changed every other day for 21–28 days. TEER values were measured before and after the assay, to determine the integrity of tight junctions of the cell monolayers. […] Cell monolayers were washed with pre-warmed HBSS–HEPES and incubated for 30 min at 37°C. Test compounds and the control propanolol, were prepared in HBSS–HEPES buffer to a final concentration of 200 µM. After incubation, buffer in the apical chamber was removed and replaced with 100 µL aliquots of each of the test compounds. […] The concentration of the peptide in the collected samples was determined using LC-MS analysis as described for the stability assay above. Radioactivity of the [^14C]-D-mannitol samples was quantified by liquid scintillation counting (Liquid Scintillation Systems).
(§3) The apparent permeability (Papp, cm/s) of each compound was calculated using the following equation: [drawing 1]
(§4) Where dC/dt is the steady-state rate of change in the test item concentration (M/s) or radiochemical concentration (dpm mL/s) in the receiver chamber, Vr is the volume of the receiver chamber (mL), A is the surface area of the cell monolayers and C0 is the initial concentration in the donor chamber (M or dpm/mL).
(§5) The average Papp values (±S.D.) from three replicates is presented.

[2] = biological target: T1, Recombinant human ASGPR (Homo sapiens, UniProt P07306); test: biochemical; type: binding
T1 construct: purchased Sino Biological Inc. (Beijing, China)
T1 sequence (P07306 62-291 limits assumed): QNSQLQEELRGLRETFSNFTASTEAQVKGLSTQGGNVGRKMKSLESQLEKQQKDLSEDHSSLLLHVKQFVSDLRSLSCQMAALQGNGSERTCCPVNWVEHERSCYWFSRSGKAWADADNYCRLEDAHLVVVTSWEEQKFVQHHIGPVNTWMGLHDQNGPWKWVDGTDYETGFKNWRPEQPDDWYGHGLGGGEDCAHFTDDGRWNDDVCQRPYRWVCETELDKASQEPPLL
Experimental: SPR experiments were performed on a Biacore T100 (GE Healthcare, Little Chalfont, UK) at 25°C. Recombinant human ASGPR (the subunit of ASGPR that contains the carbohydrate binding site) used was from Sino Biological Inc. (Beijing, China). The receptor was immobilized onto a series S sensor chip CM5 (GE Healthcare, Little Chalfont, UK) using the N-hydroxysuccinimide (NHS) capture kit (GE Healthcare, Little Chalfont, UK).
Recombinant human ASGPR was immobilized onto a series S sensor chip CM5 using the NHS capture kit, where ASGPR was covalently linked to the surface of the chip via free amine groups. Compounds were tested at 10–1000 µM concentrations using multi-cycle kinetics with at least three experiments performed for each interaction. Single cycle kinetics was applied to optimize concentrations prior to completion of multi-cycle kinetics as described by Dumont et al.. […] The running buffer for all SPR experiments was 20 mM HEPES, pH 7.4, 150 mM NaCl, 5 mM CaCl2, and 0.005% TWEEN 20.

[3] = Plasma stability assay; type: in vitro ADME; conditions: human, after incubation at 37°C for 120 min, read-out: % remained in human plasma
Experimental: Blood sample collection from a healthy and consenting human adult for this study was approved by and conducted according to the guidelines set by The University of Queensland Medical Research Ethics Committee (approval number: 2009000661). Written consent was obtained prior to the collection of blood samples. Plasma was isolated from fresh-heparin treated blood by centrifugation at 660×g for 15 min. […] Compounds (300 µL) were mixed with 300 µL of the plasma, pre-warmed at 37°C and incubated at 37°C. Samples (50 µL) were collected at predetermined time points (0, 5, 10, 20, 30, 40, 60, 90 and 120 min), and added into 75 µL ACN to precipitate the plasma proteins. Samples were then centrifuged at 7300×g for 10 min.

[4] = Caco-2 cell permeability assay; conditions: Caco-2; for Papp A→B at 150 min, 200 µM: human
Experimental: as §1, §2, §3, §4, §5

[5] = Caco-2 cell permeability assay in the presence of phlorizin (inhibitor for SGLT1); type: in vitro ADME, human; conditions: Caco-2 cell monolayer, 200 µM compound + 100 µM phlorizin, n = 3; read-out: P app, Phlorizin
Experimental: (§6) Permeability experiments (as described above) were conducted to investigate whether the compounds used the sugar transporters SGLT1 or GLUT2 for their transport across cell membranes. Samples containing 200 µM test compound and 100 µM phlorizin (inhibitor for SGLT1) or 100 µM phloretin (inhibitor for GLUT2) in HBSS-HEPES buffer were added to the apical chamber. […] P app values for each compound were then calculated as above.

[6] = Caco-2 cell permeability assay in the presence of phloretin (inhibitor for GLUT2); type: in vitro ADME, human; conditions: Caco-2 cell monolayer, 200 µM compound + 100 µM phloretin, n = 3; read-out: P app, Phloretin
Experimental: as §6

[7] = biological target: Gal-Enk (Homo sapiens); test: SPR
[8] = biological target: Gal-Lac-Enk (Homo sapiens); test: SPR
[9] = biological target: Lac-Enk (Homo sapiens); test: SPR
[10] = biological target: Leu-enkephalin (Homo sapiens); test: SPR

OC[C@@H](O)[C@@H](O)[C@H](O)[C@H](O)CO [^14C mannitol, [^14C]-D-mannitol, reference compound]
apparent permeability (Papp) ([1]; Caco-2 monolayers, apical to basolateral, compound only, values in text): 4.4×10^−9 (±3.86) cm/s

OC[C@H]1O[C@@H](O[C@H]2[C@H](O)[C@@H](O)[C@H](O)O[C@@H]2CO)[C@H](O)[C@@H](O)[C@H]1O [D-Lactose, reference compound]
Kd ([2]; SPR, immobilized ASGPR, 25°C, read-out: KD): 19.2 ± 3.28 µM

CC(C)C[C@H](NC(=O)[C@H](Cc1ccccc1)NC(=O)CNC(=O)CNC(=O)[C@H](Cc1ccc(O)cc1)NC(=O)CCC(=O)N[C@@H]1O[C@H](CO)[C@H](O)[C@H](O)[C@H]1O)C(N)=O [Gal-Enk, N^1-Leu-enkephalin-N^4-(β-D-galactopyranosyl)succinamide]
remaining at 2 h, 0.5 mg/mL [3]: ~60%
Papp A→B at 150 min, 200 µM [4]: 0.798 ± 0.203 ×10⁻⁶ cm/s
Papp A→B [5]: 1.18 ± 0.276 ×10⁻⁶ cm/s
Papp A→B [6]: 1.58 ± 0.723 ×10⁻⁶ cm/s
koff [2]: 0.072 ± 0.025 s⁻¹
kon [2]: 328 ± 84.8 M⁻¹ s⁻¹
Kd ([2]; KD): 219 ± 164 µM

CC(C)C[C@H](NC(=O)[C@H](Cc1ccccc1)NC(=O)CNC(=O)CNC(=O)[C@H](Cc1ccc(O)cc1)NC(=O)CCC(=O)N[C@@H]1O[C@H](CO)[C@@H](O[C@@H]2O[C@H](CO)[C@H](O)[C@H](O)[C@H]2O)[C@H](O)[C@H]1O)C(N)=O [Lac-Enk, N^1-Leu-enkephalin-N^4-(β-D-galactopyranosyl-(1→4)-β-D-glucopyranosyl)succinamide]
remaining at 2 h, 0.5 mg/mL [3]: ~70%
Papp A→B [4]: 1.72 ×10⁻⁶ cm/s
P app, Control (compound only) ([1]; Caco-2 cell monolayer, 200 µM, n = 3): 17.20±12.40 ×10^−7 cm/s
Papp A→B [5]: 0.711 ± 0.145 ×10⁻⁶ cm/s
Papp A→B [6]: 0.921 ± 0.084 ×10⁻⁶ cm/s
koff [2]: 0.0086 ± 0.002 s⁻¹
kon [2]: 40.7 ± 6.3 M⁻¹ s⁻¹
Kd ([2]; KD): 211 ± 70.9 µM

CC(C)C[C@H](NC(=O)[C@H](Cc1ccccc1)NC(=O)CNC(=O)CNC(=O)[C@H](Cc1ccc(O)cc1)NC(=O)CCC(=O)N[C@@H]1O[C@H](CO)[C@@H](O[C@@H]2O[C@H](CO)[C@H](O[C@H]3O[C@H](CO)[C@H](O)[C@H](O)[C@H]3O)[C@H](O)[C@H]2O)[C@H](O)[C@H]1O)C(N)=O [Gal-Lac-Enk, N^1-Leu-enkephalin-N^4-(α-D-galactopyranosyl-(1→4)-β-D-galactopyranosyl-(1→4)-β-D-glucopyranosyl)succinamide]
remaining at 2 h ([3]; plasma): ~100%
Papp A→B at 150 min, 200 µM [4]: 0.44 ± 0.163 ×10⁻⁶ cm/s
Papp A→B [5]: 0.561 ± 0.137 ×10⁻⁶ cm/s
Papp A→B [6]: 0.712 ± 0.137 ×10⁻⁶ cm/s
increase in binding affinity compared to the peptide alone [2]: two-fold
koff [2]: 0.0041 ± 0.003 s⁻¹
kon [2]: 45 ± 28.9 M⁻¹ s⁻¹
Kd ([2]; KD): 91.1 ± 22.1 µM

CC(C)NCC(O)COc1cccc2ccccc12 (stereo not drawn) [propanolol, reference compound]
Papp A→B at 150 min, 200 µM [4]: 134 ×10⁻⁶ cm/s

B1: Asialoglycoprotein receptor (ASGPR, carbohydrate-binding subunit), P07306 (protein)
chain: MTKEYQDLQHLDNEESDHHQLRKGPPPPQPLLQRLCSGPRLLLLSLGLSLLLLVVVCVIGSQNSQLQEELRGLRETFSNFTASTEAQVKGLSTQGGNVGRKMKSLESQLEKQQKDLSEDHSSLLLHVKQFVSDLRSLSCQMAALQGNGSERTCCPVNWVEHERSCYWFSRSGKAWADADNYCRLEDAHLVVVTSWEEQKFVQHHIGPVNTWMGLHDQNGPWKWVDGTDYETGFKNWRPEQPDDWYGHGLGGGEDCAHFTDDGRWNDDVCQRPYRWVCETELDKASQEPPLL
Kd [7]: 219 µM
Kd [8]: 91.1 µM
Kd [9]: 211 µM
Kd [10]: 277 µM
